Laboratory results reported in patent US9550768B2, “Kinase modulation and indications therefor” (PLEXXIKON INC., priority 2011, dated 2017).

Assays:
[1] = tested on: leukemia cell that express either wild type FLT3 or FLT3-ITD mutations; conditions: cited from earlier work
[2] = biological target: T1, FLT3 (Homo sapiens, UniProt P36888); test: Flt3 biochemical assay (AlphaScreen, recombinant enzyme); conditions: recombinant FLT3, ATP 100 μM, room temperature, 60 minutes
T1 construct: purchased Invitrogen PV3182
T1 sequence (P36888 564-993 limits assumed): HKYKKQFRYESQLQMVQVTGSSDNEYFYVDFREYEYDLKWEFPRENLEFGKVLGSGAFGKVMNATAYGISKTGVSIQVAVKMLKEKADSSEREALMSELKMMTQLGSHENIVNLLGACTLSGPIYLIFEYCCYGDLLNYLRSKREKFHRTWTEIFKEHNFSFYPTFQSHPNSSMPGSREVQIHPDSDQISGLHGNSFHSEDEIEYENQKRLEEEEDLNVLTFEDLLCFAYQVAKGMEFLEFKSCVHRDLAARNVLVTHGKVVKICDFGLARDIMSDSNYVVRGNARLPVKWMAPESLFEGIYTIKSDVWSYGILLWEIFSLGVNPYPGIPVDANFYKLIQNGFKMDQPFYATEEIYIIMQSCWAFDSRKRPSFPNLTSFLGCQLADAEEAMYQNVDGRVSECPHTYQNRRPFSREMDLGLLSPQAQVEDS
Source text: Using AlphaScreen™ technology, the ability of the compounds to affect the catalytic activity of the kinases can be measured quantitatively. The peptide substrate is immobilized by the AlphaScreen™ Streptavidin Donor beads and, upon phosphorylation by a tyrosine kinase, can bind to AlphaScreen™ Anti-Phosphotyrosine (PY20) Acceptor beads. Upon excitation of these beads with laser light at 680 nm, singlet oxygen is produced. This singlet oxygen is rapidly quenched, unless the AlphaScreen™ Anti-Phosphotyrosine (PY20) Acceptor beads are in close proximity, in which case a proximity signal can be measured at 580 nm. In the presence of catalytic activity, there is a very strong proximity signal.
Centrifuge 1 minute, shake to mix, and incubate as follows:
• Mix Streptavidin Donor beads at 6× final concentration in Stop/Detection buffer. • Add 5 μL Streptavidin Donor beads to the reaction plate.

Row | SMILES | growth of leukemia cells [1] | IC50 [2]
1 | C=CCNC1=C2C[C@@H](C)C[C@H](OC)[C@H](O)[C@@H](C)/C=C(\C)[C@H](OC(N)=O)[C@@H](OC)/C=C\C=C(/C)C(=O)NC(=CC1=O)C2=O [Compound 17AAG] | inhibited | 
2 | COc1cnc2[nH]cc(Cc3ccc(NCc4ccc(C(F)(F)F)nc4)nc3F)c2c1 [Compound P-0187, [6-Fluoro-5-(5-methoxy-1H-pyrrolo[2,3-b]pyridin-3-ylmethyl)-pyridin-2-yl]-(6-trifluoromethyl-pyridin-3-ylmethyl)-amine] |  | < 0.01 µM
3 | Fc1ccc(CNc2nc(Cl)c(Cc3c[nH]c4ncc(Cl)cc34)s2)cc1 [Compound P-0195, [4-Chloro-5-(5-chloro-1H-pyrrolo[2,3-b]pyridin-3-ylmethyl)-thiazol-2-yl]-(4-fluoro-benzyl)-amine] |  | < 0.1 µM
4 | N#Cc1cnc2[nH]cc(Cc3ccc(NCc4ccc(C(F)(F)F)nc4)nc3Cl)c2c1 [Compound P-0232, 3-{2-Chloro-6-[(6-trifluoromethyl-pyridin-3-ylmethyl)-amino]-pyridin-3-ylmethyl}-1H-pyrrolo[2,3-b]pyridine-5-carbonitrile] |  | < 0.1 µM
5 | COc1ccc(CNc2ccc(Cc3c[nH]c4ncc(C)cc34)cn2)cn1 [Compound P-0282, (6-Methoxy-pyridin-3-ylmethyl)-[5-(5-methyl-1H-pyrrolo[2,3-b]pyridin-3-ylmethyl)-pyridin-2-yl]-amine] |  | < 0.1 µM
6 | COc1ccc(CNc2ccc(Cc3c[nH]c4ncc(Cl)cc34)cn2)cn1 [Compound P-0283, [5-(5-Chloro-1H-pyrrolo[2,3-b]pyridin-3-ylmethyl)-pyridin-2-yl]-(6-methoxy-pyridin-3-ylmethyl)-amine] |  | < 0.1 µM
7 | COc1ccc(CNc2ccc(Cc3c[nH]c4ncc(C#N)cc34)cn2)cn1 [Compound P-0284, 3-{6-[(6-Methoxy-pyridin-3-ylmethyl)-amino]-pyridin-3-ylmethyl}-1H-pyrrolo[2,3-b]pyridine-5-carbonitrile] |  | < 1 µM
8 | Fc1cncc(CNc2ccc(Cc3c[nH]c4ncc(Cl)cc34)cn2)c1 [Compound P-0324, [5-(5-Chloro-1H-pyrrolo[2,3-b]pyridin-3-ylmethyl)-pyridin-2-yl]-(5-fluoro-pyridin-3-ylmethyl)-amine] |  | < 1 µM
9 | COc1cnc2[nH]cc(Cc3ccc(NCc4ccccc4C(F)(F)F)nc3)c2c1 [Compound P-0326, [5-(5-Methoxy-1H-pyrrolo[2,3-b]pyridin-3-ylmethyl)-pyridin-2-yl]-(2-trifluoromethyl-benzyl)-amine] |  | < 0.1 µM
10 | COc1cnc2[nH]cc(Cc3ccc(NCc4cc(F)ccc4F)nc3)c2c1 [Compound P-0330, (2,5-Difluoro-benzyl)-[5-(5-methoxy-1H-pyrrolo[2,3-b]pyridin-3-ylmethyl)-pyridin-2-yl]-amine] |  | < 1 µM
11 | COc1cnc2[nH]cc(Cc3ccc(NCc4ccc(OC)nc4)nc3)c2c1 [Compound P-0332, (6-Methoxy-pyridin-3-ylmethyl)-[5-(5-methoxy-1H-pyrrolo[2,3-b]pyridin-3-ylmethyl)-pyridin-2-yl]-amine] |  | < 0.1 µM
12 | Fc1cnc2[nH]cc(Cc3ccc(NCc4c(F)cccc4F)nc3)c2c1 [Compound P-0333, (2,6-Difluoro-benzyl)-[5-(5-fluoro-1H-pyrrolo[2,3-b]pyridin-3-ylmethyl)-pyridin-2-yl]-amine] |  | < 10 µM
13 | COc1ccc(CNc2ccc(Cc3c[nH]c4ncccc34)cn2)c(OC)n1 [Compound P-0370, (2,6-Dimethoxy-pyridin-3-ylmethyl)-[5-(1H-pyrrolo[2,3-b]pyridin-3-ylmethyl)-pyridin-2-yl]-amine] |  | < 0.1 µM
14 | Cc1cc(F)ccc1CNc1ccc(Cc2c[nH]c3ncccc23)cn1 [Compound P-0372, (4-Fluoro-2-methyl-benzyl)-[5-(1H-pyrrolo[2,3-b]pyridin-3-ylmethyl)-pyridin-2-yl]-amine] |  | < 0.1 µM
15 | Clc1ccc(Cl)c(CNc2ccc(Cc3c[nH]c4ncccc34)cn2)c1 [Compound P-0380, (2,5-Dichloro-benzyl)-[5-(1H-pyrrolo[2,3-b]pyridin-3-ylmethyl)-pyridin-2-yl]-amine] |  | < 1 µM
16 | CCc1ccccc1CNc1ccc(Cc2c[nH]c3ncccc23)cn1 [Compound P-0383, (2-Ethyl-benzyl)-[5-(1H-pyrrolo[2,3-b]pyridin-3-ylmethyl)-pyridin-2-yl]-amine] |  | < 1 µM
17 | CNc1ncccc1CNc1ccc(Cc2c[nH]c3ncccc23)cn1 [Compound P-0385, Methyl-(3-{[5-(1H-pyrrolo[2,3-b]pyridin-3-ylmethyl)-pyridin-2-ylamino]-methyl}-pyridin-2-yl)-amine] |  | < 1 µM
18 | Fc1ccc(C(F)(F)F)c(CNc2ncc(Cc3c[nH]c4ncc(Cl)cc34)cn2)c1 [Compound P-0391, [5-(5-Chloro-1H-pyrrolo[2,3-b]pyridin-3-ylmethyl)-pyrimidin-2-yl]-(5-fluoro-2-trifluoromethyl-benzyl)-amine] |  | < 10 µM
19 | CN(C)c1ncccc1CNc1ccc(Cc2c[nH]c3ncccc23)cn1 [Compound P-0399, Dimethyl-(3-{[5-(1H-pyrrolo[2,3-b]pyridin-3-ylmethyl)-pyridin-2-ylamino]-methyl}-pyridin-2-yl)-amine] |  | < 0.1 µM
20 | Fc1ccc(Cl)c(CNc2ncc(Cc3c[nH]c4ncc(Cl)cc34)cn2)c1 [Compound P-0408, (2-Chloro-5-fluoro-benzyl)-[5-(5-chloro-1H-pyrrolo[2,3-b]pyridin-3-ylmethyl)-pyrimidin-2-yl]-amine] |  | < 1 µM
21 | N#Cc1cnc2[nH]cc(Cc3ccc(NCc4cncc(F)c4)nc3F)c2c1 [Compound P-0415, 3-{2-Fluoro-6-[(5-fluoro-pyridin-3-ylmethyl)-amino]-pyridin-3-ylmethyl}-1H-pyrrolo[2,3-b]pyridine-5-carbonitrile] |  | < 1 µM
22 | CC(Nc1ncc(Cc2c[nH]c3ncc(Cl)cc23)cn1)c1ccc(Cl)cc1 (stereo not shown) [Compound P-0427, [1-(4-Chloro-phenyl)-ethyl]-[5-(5-chloro-1H-pyrrolo[2,3-b]pyridin-3-ylmethyl)-pyrimidin-2-yl]-amine] |  | < 1 µM
23 | C[C@H](Nc1ncc(Cc2c[nH]c3ncc(Cl)cc23)cn1)c1ccc(F)cc1 [Compound P-0428, [5-(5-Chloro-1H-pyrrolo[2,3-b]pyridin-3-ylmethyl)-pyrimidin-2-yl]-[(S)-1-(4-fluoro-phenyl)-ethyl]-amine] |  | < 1 µM
24 | FC(F)(F)c1ccc(CNc2ncc(Cc3c[nH]c4ncc(Cl)cc34)cn2)cn1 [Compound P-0429, [5-(5-Chloro-1H-pyrrolo[2,3-b]pyridin-3-ylmethyl)-pyrimidin-2-yl]-(6-trifluoromethyl-pyridin-3-ylmethyl)-amine] |  | < 0.1 µM
25 | N#Cc1cnc2[nH]cc(Cc3ccc(NCc4ccc(Cl)cc4)nc3F)c2c1 [Compound P-0432, 3-[6-(4-Chloro-benzylamino)-2-fluoro-pyridin-3-ylmethyl]-1H-pyrrolo[2,3-b]pyridine-5-carbonitrile] |  | < 0.1 µM
26 | COc1ccccc1CNc1ncc(Cc2c[nH]c3ncc(Cl)cc23)cn1 [Compound P-0433, [5-(5-Chloro-1H-pyrrolo[2,3-b]pyridin-3-ylmethyl)-pyrimidin-2-yl]-(2-methoxy-benzyl)-amine] |  | < 1 µM
27 | Fc1cccc(CNc2ncc(Cc3c[nH]c4ncc(Cl)cc34)cn2)c1 [Compound P-0442, [5-(5-Chloro-1H-pyrrolo[2,3-b]pyridin-3-ylmethyl)-pyrimidin-2-yl]-(3-fluoro-benzyl)-amine] |  | < 0.1 µM
28 | CN(C)c1ccccc1CNc1ncc(Cc2c[nH]c3ncc(Cl)cc23)cn1 [Compound P-0449, [5-(5-Chloro-1H-pyrrolo[2,3-b]pyridin-3-ylmethyl)-pyrimidin-2-yl]-(2-dimethylamino-benzyl)-amine] |  | < 0.01 µM
